Target: T1, Angiotensin II (A II) receptor (Oryctolagus cuniculus, UniProt P34976)
T1 construct: 125I-Sar1Ile8-angiotensin II displacement
T1 sequence (P34976 1-359): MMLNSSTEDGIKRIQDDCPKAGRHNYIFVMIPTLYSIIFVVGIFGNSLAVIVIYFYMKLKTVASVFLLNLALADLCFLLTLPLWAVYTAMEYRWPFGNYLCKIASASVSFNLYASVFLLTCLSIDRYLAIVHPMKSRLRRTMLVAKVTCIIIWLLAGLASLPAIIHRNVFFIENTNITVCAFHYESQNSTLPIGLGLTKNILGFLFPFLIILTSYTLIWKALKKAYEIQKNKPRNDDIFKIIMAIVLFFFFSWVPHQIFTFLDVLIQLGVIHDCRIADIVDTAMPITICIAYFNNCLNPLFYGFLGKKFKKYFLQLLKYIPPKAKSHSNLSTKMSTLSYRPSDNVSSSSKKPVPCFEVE
Experiment: Receptor Binding Assay Using Rabbit Aortae Membrane Preparation ("IC50" assay)
Procedure: This assay is also referred to herein as the "IC50 " assay.
Receptor Binding Assay Using Rabbit Aortae Membrane Preparation
Three frozen rabbit aortae (obtained from Pel-Freeze Biologicals) were suspended in 5 mM Tris-0.25M Sucrose, pH 7.4 buffer (50 mL) homogenized, and then centrifuged. The mixture was filtered through a cheesecloth and the supernatant was centrifuged for 30 minutes at 20,000 rpm at 4° C. The pellet thus obtained was resuspended in 30 mL of 50 mM Tris-5 mM MgCl2 buffer containing 0.2% Bovine Serum Albumin and 0.2 mg/mL Bacitratin and the suspension was used for 100 assay tubes. Samples tested for screening were done in duplicate. To the membrane preparation (0.25 mL) there was added ^125 I-Sar^1 Ile^8 -angiotensin II [obtained from New England Nuclear] (10 uL; 20,000 cpm) with or without the test sample and the mixture was incubated at 37° C. for 90 minutes. The mixture was then diluted with ice-cold 50 mM Tris-0.9% NaCl, pH 7.4 (4 mL) and filtered through a glass fiber filter (GF/B Whatman 2.4" diameter). The filter was soaked in scintillation cocktail (10 mL) and counted for radioactivity using Packard 2660 Tricarb liquid scintillation counter. […]

**Q.** Which “A II antagonist activity by the IC50 assay” value does the source give for `CC(O)CCc1nc(Cl)c(CO)n1Cc1ccc(-c2ccccc2-c2nnn[nH]2)cc1` (stereo not shown) [compound (I)] here?
**A.** exhibits A II antagonist activity

— patent US5214153A, “Actinoplanes transformation process anti-hypertensive compound and method of use thereas” (Merck & Co., Inc., priority 1992, dated 1993)
